# Values quoted from earlier work as cited in US11058735B2, “Formulations containing pomegranate seed oil, rosa canina fruit oil and inula viscosa oleoresin or extract” (POMEGA, INC., priority 2014, dated 2021).
# Conditions: compared with grape seed extract, background statement
compound,measurement,value
CCCC\C=C/C=C/C=C\CCCCCCCC(=O)O [Punicic acid],antioxidant power relative to grape seed extract,approximately 10 times
